What is called EC50 is the concentration giving half of the maximal effect. Read a low EC50 as an effect from little substance.

Consider 28 compounds from US11667632B2, “2-(1H-indazol-3-yl)-3H-imidazo[4,5-C]pyridines and their anti-inflammatory uses thereof” (BioSplice Therapeutics, Inc., priority 2015, dated 2023).

Each structure is given as a SMILES string. Marks after values point to notes of the source that are not given here.

A short description of data set [1]: Competitive slurry experiments between polymorph forms (thermodynamic stability). Format: physicochemical. The settings on record: EA at RT and 50° C.; slurried 3-5 days, XRD. The protocol: In order to find out the thermodynamic stability between the different forms, several competitive slurry experiments were carried out. Form 1, Form 2, Form 2*, Form 3, Form 4, Form 4*, Form 4**, Form 5, Form 7, Form 8, Form 9, Form 10, Form 11, Form 11*, and Form 13 (10 mg for each) was mixed and slurried in 2 mL of solvent at both RT and 50° C. The solids were slurried for 3-5 days and then analyzed by XRD.
In order to find out the thermodynamic stability between Form 13 and Form 9, several competitive slurry experiments were carried out. 15 mg of Form 1, Form 9 and Form 13 solid were mixed in 1 mL of toluene, IPAc, and n-butyl acetate, and slurried for 3 days at RT and 50° C.
The residual solid was analyzed by XRD.

The subject of another data set is IL-6. Put plainly: Inhibition of IL-6 in LPS-stimulated human monocyte cells (THP-1), HTRF. Format: cell-based. The settings on record: THP-1 cells; for EC50: Homo sapiens, LPS 500 ng/mL, IL-6 by HTRF; for percent inhibition of IL-6 at 10 μM: LPS-stimulated, dose-response starting from 10 μM. Here is the method: Human Monocyte Cell Culture: A human monocyte cell line (THP-1 cells; Catalog #TIB-202, ATCC, Manassas, Va.) was cultured in Roswell Park Memorial Institute (RPMI) 1640 Medium (Catalog #21870-100, Buffalo, N.Y.) with 1% L-glutamine, 1% HEPES, 1% sodium pyruvate, 2% sodium bicarbonate supplemented with 100 units/mL penicillin, 50 μg/mL streptomycin, 2-mercaptoethanol (0.05 mM) [basal medium] and 10% fetal bovine serum (Catalog #16140089, Life Technologies, Carlsbad, Calif.) at 37° C. and 5% CO2.
Compound Screening: THP-1 cells were cultured in basal media with 1% FBS for 24 hours before the start of the assay. Each compound of Formula (I) was dissolved in DMSO as a 10 mM stock and used to prepare compound source plates. Serial dilution (1:3, 10-point dose-response curves starting from 10 μM) and compound transfer was performed using the ECHO 550 (Labcyte, Sunnyvale, Calif.) into 384-well white low volume assay plates (Greiner Bio-One) with appropriate DMSO backfill for a final DMSO concentration of 0.1%. THP-1 cells were plated at 5000 cells/well in the 384-well plates and incubated at 37° C. for 2 h. 500 ng/mL of LPS was added after 2 hours and cells were incubated for another 22 hours at 37° C. Plates were spun in a centrifuge for 1 minute at 10,000 rpm and a mixture of anti-IL-6 XL665, and anti-IL-6 Cryptate diluted in reconstitution buffer (Cisbio Inc.) was added to each well. Following incubation for 3 hrs at room temperature, homogeneous time-resolved fluorescence (HTRF) was measured using the Envision (Perkin Elmer) at 665 nm and […]. The ratio of fluorescence at 665 nm to 620 nm was used as a readout for IL-6 quantification. All samples were processed in duplicate. Readings were normalized to DMSO treated cells and normalized activities were utilized for EC50 calculations using the dose-response log (inhibitor) vs. response -variable slope (four parameters) nonlinear regression feature available in GraphPad Prism 5.0 (or Dotmatics). For EC50 of >10 μM, the percent inhibition at 10 μM is provided.
A general note: TR-FRET usually uses a lanthanide donor and a delayed reading to cut background.

A short description of data set [2]: Slurry experiments in various solvents (polymorph screen). It counts as physicochemical. Here is the method: Slurry experiments in various solvents were performed. Approximately 30-80 mg of the starting solid (a non-stoichiometric hydrate of Form 1 having between […] and about 20% by weight water) was slurried in 39 different solvents (pure and binary solvents; the ratio of organic solvent/water (V/V) was […]) at RT and 50° C. for 5 days. Three solvates, one non-stoichiometric hydrate, and eleven non-solvated forms were identified. […] XRD of both wet and dry samples were scanned (FIG. 12A (dry sample)).
The slurry experiments identified 3 solvated forms from wet samples (Solvates 1, 2, and 3); 2 non-stoichiometric hydrates of Form 1 (Forms 12 and 13); and 11 non-solvated forms (Forms 1-11). In some instances, similar XRD scans with minor differences were obtained. These were considered to be part of the same class (e.g., the same form). For example, XRD scans of Form 2 and Form 2* were similar and were considered to belong to the same class. The solvated forms were obtained from wet sample analysis; after drying, the sample indicated a different XRD.
Solvate 1 was obtained from acetone at RT, and after drying, a low crystallinity solid was generated. Solvate 2 was obtained from acetone (at RT) and acetone/water (at RT), and after drying, Form 4** was generated. Solvate 3 was obtained from EtOH/water at RT, and after drying, Form 2 was generated.

Data set [3] in a line: Dynamic vapor sorption (DVS) scan. Format: physicochemical. Particulars: for water absorption (DVS scan): at 90% RH. An excerpt: The purity of the Form 13 sample was 98.8%; the KF of an undried Form 13 sample was 35.7%.
The mark [4] stands for this setting: slurry in Acetone/water (5% water), RT.
[5] abbreviates: slurry in EtOH/water (5% water), RT.
Setting [6] is: slurry in Acetonitrile/water (5% water), RT.
The mark [7] stands for this setting: slurry in EA/water (5% water), RT.
Where [8] appears, read: slurry in Heptane/water (5% water), RT.
Setting [9] is: slurry in IPAc/water (5% water), RT.
Setting [10] is: slurry in MA/water (5% water), 50° C.
Setting [11] is: slurry in MIBK/water (5% water), RT.
[12] abbreviates: slurry in MeOH/water (5% water), RT.
Where [13] appears, read: slurry in MtBE/water (5% water), RT.
The mark [14] stands for this setting: slurry in n-Butyl acetate/water (5% water), RT.

With `CN1CCN(c2cncc3[nH]c(-c4n[nH]c5ccc(-c6cccnc6)cc45)nc23)CC1` [4*], the “thermodynamic stability between forms (competitive slurry)” value in data set [1] was “most stable”. Besides, the EC50 in the data set on IL-6 stood at 74 nM.
In the case of `CC(C)CC(=O)Nc1cncc(-c2ccc3[nH]nc(-c4nc5c(-c6cccc(F)c6)cncc5[nH]4)c3c2)c1` [Solvate 2], the “Form, Dry” value in data set [2] (slurry in Acetone, 50° C.) was “Form 4**”; in data set [2] (setting [4]), “Form 4**”. Further, the “Form, Wet” value in data set [2] (slurry in Acetone, 50° C.) is reported as “Solvate 2”; in data set [2] (setting [4]) it was “Solvate 2”.
As for `CC(C)CC(=O)Nc1cncc(-c2ccc3[nH]nc(-c4nc5c(-c6cccc(F)c6)cncc5[nH]4)c3c2)c1` [Form 1], in data set [3], the “water absorption (DVS scan)” value was found to be 17%.
As to `CC(C)CC(=O)Nc1cncc(-c2ccc3[nH]nc(-c4nc5c(-c6cccc(F)c6)cncc5[nH]4)c3c2)c1` [Solvate 3], in data set [2] (setting [5]), the “Form, Dry” value is given as “Form 2” and the “Form, Wet” value is “Solvate 3”.
With `CC(C)CC(=O)Nc1cncc(-c2ccc3[nH]nc(-c4nc5c(-c6cccc(F)c6)cncc5[nH]4)c3c2)c1` [Form 9], in data set [3], the “change of form before and after the DVS scan” value is reported as “did not change its form”; the “water absorption (DVS scan)” value is on record as 0.8%.
`CC(C)CC(=O)Nc1cncc(-c2ccc3[nH]nc(-c4nc5c(-c6cccc(F)c6)cncc5[nH]4)c3c2)c1` [Form 12]: the “Form, Dry” value was “Form 1” in data set [2] (setting [6]); “Form 1” in data set [2] (setting [7]); “Form 12” in data set [2] (setting [8]); “Form 1” in data set [2] (setting [9]); “Form 4” in data set [2] (setting [10]); “Form 1” in data set [2] (setting [11]). In addition, the “Form, Dry” value is listed as “Form 1” in data set [2] (setting [12]), “Form 1” in data set [2] (setting [13]) and “Form 12” in data set [2] (setting [14]). Moreover, the “Form, Wet” value is “Form 12” in data set [2] (setting [6]); “Form 12” in data set [2] (setting [7]); “Form 13” in data set [2] (setting [8]); “Form 12” in data set [2] (setting [9]); “Form 12” in data set [2] (setting [10]); “Form 12” in data set [2] (setting [11]). The results for the “Form, Wet” value in data set [2] (setting [12]), in data set [2] (setting [13]) and in data set [2] (setting [14]) were “Form 12”, “Form 12” and “Form 13”, respectively.
Regarding `CC(C)(C)C(=O)Nc1cncc(-c2ccc3[nH]nc(-c4nc5c(N6CCCCC6)cncc5[nH]4)c3c2)c1` [Compound 205], the concentration for a half-maximal effect (EC50) in the data set on IL-6 turned out to be 16 nM.
In the data set with IL-6, `O=C(Nc1cncc(-c2ccc3[nH]nc(-c4nc5c(N6CCCCC6)cncc5[nH]4)c3c2)c1)C1CCC1` [Compound 217] displayed an EC50 of 14 nM.
`Fc1ccc(-c2cncc3[nH]c(-c4n[nH]c5ccc(-c6cncc(CN7CCCC7)c6)cc45)nc23)cc1` [Compound 107] showed an EC50 in the data set on IL-6 of 75 nM.
For the compound `O=C(Nc1cncc(-c2ccc3[nH]nc(-c4nc5c(-c6ccc(F)cc6)cncc5[nH]4)c3c2)c1)C1CCC1` [Compound 111], the EC50 with IL-6 is 50 nM.
Turning to `O=C(Cc1ccccc1)Nc1cncc(-c2ccc3[nH]nc(-c4nc5ccncc5[nH]4)c3c2)c1` [Compound 274], in the data set on IL-6, the EC50 is above 10000 nM and the “percent inhibition of IL-6 at 10 μM” value was “(24.1%)”.
Compound `c1ccc(-c2cncc3[nH]c(-c4n[nH]c5ccc(-c6cccnc6)cc45)nc23)nc1` [Compound 177] came in with a concentration for a half-maximal effect (EC50) in the data set on IL-6 of 30 nM.
`Fc1cccc(-c2cncc3[nH]c(-c4n[nH]c5ccc(-c6cncc(CN7CCC(F)(F)C7)c6)cc45)nc23)c1` [Compound 336]: the EC50 in the data set with IL-6 was found to be 71 nM.
In the case of `CN(C)Cc1cncc(-c2ccc3[nH]nc(-c4nc5c(-c6ccccn6)cncc5[nH]4)c3c2)c1` [Compound 186], the concentration giving a half-maximal response (EC50) in the data set on IL-6 amounted to 1180 nM.
In the case of `CC(C)CC(=O)Nc1cncc(-c2ccc3[nH]nc(-c4nc5c(-c6cccc(F)c6)cncc5[nH]4)c3c2)c1` [Solvate 1], in data set [2] (slurry in Acetone, RT), the “Form, Dry” value is “Low” and the “Form, Wet” value is on record as “Solvate 1”.
In the case of `Cc1ccncc1-c1ccc2[nH]nc(-c3nc4c(N5CCCCC5)cncc4[nH]3)c2c1` [Compound 202], the EC50 in the data set with IL-6 came out at 1220 nM.
As to `CN1CCN(c2cncc3[nH]c(-c4n[nH]c5ccc(-c6cncc(N)c6)cc45)nc23)CC1` [Compound 247], in the data set with IL-6, the EC50 turned out to be 474 nM.
Compound `c1cncc(-c2ccc3[nH]nc(-c4nc5c(-c6ccoc6)cncc5[nH]4)c3c2)c1` [Compound 315] registered a half-maximal effective concentration (EC50) in the data set on IL-6 of 207 nM.
`CN(C)Cc1cncc(-c2ccc3[nH]nc(-c4nc5c(-c6cccc(F)c6)cncc5[nH]4)c3c2)c1` [Compound 89]: in the data set with IL-6, the half-maximal effective concentration (EC50) was found to be 44 nM.
In the data set with IL-6, `CC(C)(C)CC(=O)Nc1cncc(-c2ccc3[nH]nc(-c4nc5ccncc5[nH]4)c3c2)c1` [Compound 280] showed a concentration giving a half-maximal response (EC50) of 731 nM.
On to `CC(C)CC(=O)Nc1cncc(-c2ccc3[nH]nc(-c4nc5c(-c6cc(F)cc(CNS(C)(=O)=O)c6)cncc5[nH]4)c3c2)c1` [Compound 373], for which the EC50 in the data set on IL-6 amounted to 34 nM.
Consider `CN1CCN(c2cncc3[nH]c(-c4n[nH]c5ccc(-c6cncc(N7CCOCC7)c6)cc45)nc23)CC1` [Compound 5], for which the EC50 in the data set with IL-6 turned out to be 349 nM.
As for `CC(C)CC(=O)Nc1cncc(-c2ccc3[nH]nc(-c4nc5c(-c6cccs6)cncc5[nH]4)c3c2)c1` [Compound 397], the response in the data set on IL-6 was half-maximal at 14 nM (EC50).
`CN1CCN(c2cncc3[nH]c(-c4n[nH]c5ccc(-c6cncc(NC(=O)Cc7ccccc7)c6)cc45)nc23)CC1` [Compound 252]: the EC50 in the data set on IL-6 stood at 750 nM.
Take `CC(C)CC(=O)Nc1cncc(-c2ccc3[nH]nc(-c4nc5c(-c6ccc(F)cc6)cncc5[nH]4)c3c2)c1` [Compound 12]: the concentration for a half-maximal effect (EC50) in the data set with IL-6 turned out to be 45 nM.
Still for that read-out and setting: with `CC(C)(C)CC(=O)Nc1cncc(-c2ccc3[nH]nc(-c4nc5c(-c6ccsc6)cncc5[nH]4)c3c2)c1` [Compound 304] the figure was 40 nM.
For the compound `Nc1cncc(-c2ccc3[nH]nc(-c4nc5ccncc5[nH]4)c3c2)c1` [Compound 268], in the data set on IL-6, the concentration giving a half-maximal response (EC50) is above 10000 nM and the “percent inhibition of IL-6 at 10 μM” value is given as “(27.6%)”.
`c1cc(-c2cncc3[nH]c(-c4n[nH]c5ccc(-c6cncc(CN7CCCCC7)c6)cc45)nc23)cs1` [Compound 303] came in with an EC50 with IL-6 of 1010 nM.
